Laboratory results published in ChEMBL document CHEMBL1146787, “Novel nonpeptidic inhibitors of HIV-1 protease obtained via a new multicomponent chemistry strategy” (Bioorg Med Chem Lett, 2004).

How the values were obtained:
[1] = biological target: T1, Human immunodeficiency virus type 1 protease (Human immunodeficiency virus 1, UniProt Q72874); test: Inhibitory concentration against Protease
[2] = biological target: T1, Human immunodeficiency virus type 1 protease; test: Evaluated for inhibition of Protease after resynthesis and purification
[3] = biological target: T1, Human immunodeficiency virus type 1 protease; test: Evaluated for inhibition of Protease after CLND/MS correction from the crude mixture
[4] = biological target: T1, Human immunodeficiency virus type 1 protease; test: Evaluated for inhibition of Protease from the crude plate mixture

Row | SMILES | IC50 [1] [µM] | also measured
1 | CC(C)(C)NC(=O)C1(CCc2ccccc2)OC(O)=C(CCc2ccccc2)C1=O (configuration not stated) | 3 | –
2 | CC(C)(C)NC(=O)C1(C)OC(O)=C(CCc2ccccc2)C1=O (configuration not stated) | 70 | –
3 | CC(C)(C)NC(=O)C1(CCc2ccccc2)OC(O)=C(Cc2ccccc2)C1=O (configuration not stated) | 11 | –
4 | CC(C)=CCCC(C)C1=C(O)C(CCc2ccccc2)(C(=O)NC(C)(C)C)OC1=O (configuration not stated) | 1 | IC50 [2]: 1.3 µM; IC50 [3]: 1.3 µM; IC50 [4]: 15 µM
5 | CC(C)(C)NC(=O)C1(CCc2ccccc2)OC(O)=C(c2ccc(-c3ccccc3)cc2)C1=O (configuration not stated) | 27 | –
6 | CNC(=O)C1(C)OC(O)=C(C(C)c2ccccc2)C1=O (configuration not stated) | 244 | –
7 | CCCCNC(=O)C1(C)OC(O)=C(CCc2ccccc2)C1=O (configuration not stated) | > 100 | –
8 | CC(C1=C(O)C(C)(C(=O)NC(C)(C)C)OC1=O)c1ccccc1 (configuration not stated) | 105 | –
9 | CC(C1=C(O)OC(C(=O)NCCc2ccc(Cl)cc2)(C(C)C)C1=O)c1ccccc1 (configuration not stated) | 31 | –
10 | COc1cc(CC2=C(O)C(C)(C(=O)NC(C)(C)C)OC2=O)cc(OC)c1OC (configuration not stated) | > 1000 | –
11 | CN(C(=O)OC(C)(C)C)C1=C(O)C(CCc2ccccc2)(C(=O)NC(C)(C)C)OC1=O (configuration not stated) | 47 | –
12 | CC(C)(C)NC(=O)C1(CCc2ccccc2)OC(O)=C(c2c[nH]c3ccccc23)C1=O (configuration not stated) | 107 | –
13 | C[C@H](C1=C(O)[C@@](CCc2ccccc2)(C(=O)NCc2ccc(C(C)(C)C)cc2)OC1=O)c1ccccc1 | – | IC50 [2]: 5.4 µM
14 | CC(C1=C(O)[C@@](CCc2ccccc2)(C(=O)NCc2ccc(C(C)(C)C)cc2)OC1=O)c1ccccc1 (some centres not stated) | 5 | –
15 | COCCNC(=O)C1(C)OC(O)=C(C(C)c2ccccc2)C1=O (configuration not stated) | 224 | –
16 | CN(C(=O)OC(C)(C)C)C1=C(O)C(CCc2ccccc2)(C(=O)NCC2CCCO2)OC1=O (configuration not stated) | 193 | –
17 | CNC1=C(O)C(CCc2ccccc2)(C(=O)NCC2CCCO2)OC1=O (configuration not stated) | > 1000 | –
18 | CC(C)(C)NC(=O)C1(CCc2ccccc2)OC(O)=C(c2ccc(C(C)(C)C)cc2)C1=O (configuration not stated) | 17 | –
19 | COc1cc(CC2=C(O)C(C)(C(=O)NC3CC3)OC2=O)cc(OC)c1OC (configuration not stated) | > 1000 | –
20 | CC(C1=C(O)C(CCc2ccccc2)(C(=O)NC(C)(C)C)OC1=O)c1ccccc1 (configuration not stated) | 4 | IC50 [2]: 2 µM; IC50 [3]: 4.1 µM; IC50 [4]: 6 µM
21 | CC1(C(=O)NC2CC2)OC(O)=C(CCc2ccccc2)C1=O (configuration not stated) | 294 | –
22 | CC(C)=CCCC(C)C1=C(O)C(C)(C(=O)NC(C)(C)C)OC1=O (configuration not stated) | 151 | –
23 | COc1cc(CC2=C(O)C(CCc3ccccc3)(C(=O)NCC(C)(C)C)OC2=O)cc(OC)c1OC (configuration not stated) | > 1000 | –
24 | C[C@H](C1=C(O)C(CCc2ccccc2)(C(=O)NCc2ccc(C(C)(C)C)cc2)OC1=O)c1ccccc1 (single isomer, unassigned) | 84 | IC50 [2]: 4.6 µM; IC50 [3]: 1.2 µM
